pIC50: −log10 of the molar value. Where a name gives a salt, the structure may show the parent alone. Read-outs that look alike come from different tables or passages of the source.
Experiments:
[1] = biological target: T1, GP IIb IIIa (Homo sapiens, UniProt P05106+P08514); test: Fibrinogen-GP IIb IIIa Receptor ELISA Binding Assay (Fg/IIbIIIa); details: for pIC50: Example 29, Cmpd # 1-105, read-out: IC50 Fg/IIbI; for IC50: read-out: IC50 (μM) Fg/IIbIIIa
T1 construct: from tissue; host or cells: outdated human platelets
T1 sequence (P08514 32-887 limits assumed): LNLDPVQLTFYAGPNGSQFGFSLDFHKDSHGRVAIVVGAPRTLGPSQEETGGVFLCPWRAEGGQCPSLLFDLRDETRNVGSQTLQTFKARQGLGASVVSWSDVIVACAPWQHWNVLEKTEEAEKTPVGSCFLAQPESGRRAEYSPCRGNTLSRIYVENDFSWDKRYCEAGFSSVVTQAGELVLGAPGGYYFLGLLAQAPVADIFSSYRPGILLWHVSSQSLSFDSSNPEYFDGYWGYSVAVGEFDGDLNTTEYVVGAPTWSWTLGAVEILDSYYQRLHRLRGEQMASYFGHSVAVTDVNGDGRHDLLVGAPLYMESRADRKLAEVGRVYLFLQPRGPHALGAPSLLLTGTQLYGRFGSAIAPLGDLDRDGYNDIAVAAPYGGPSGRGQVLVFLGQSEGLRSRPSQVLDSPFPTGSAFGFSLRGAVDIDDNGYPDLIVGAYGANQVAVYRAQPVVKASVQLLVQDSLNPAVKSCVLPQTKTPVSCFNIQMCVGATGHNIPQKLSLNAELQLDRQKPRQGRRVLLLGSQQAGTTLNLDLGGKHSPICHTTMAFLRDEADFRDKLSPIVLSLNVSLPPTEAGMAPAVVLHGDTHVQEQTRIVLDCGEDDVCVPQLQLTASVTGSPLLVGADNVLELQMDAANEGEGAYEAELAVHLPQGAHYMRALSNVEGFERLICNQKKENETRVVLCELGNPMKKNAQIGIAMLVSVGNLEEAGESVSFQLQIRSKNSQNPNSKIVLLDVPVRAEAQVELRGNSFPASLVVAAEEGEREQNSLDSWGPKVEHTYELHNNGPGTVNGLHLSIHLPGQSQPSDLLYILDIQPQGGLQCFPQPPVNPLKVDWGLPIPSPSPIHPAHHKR
T1 sequence (P08514 891-1039 partner limits assumed): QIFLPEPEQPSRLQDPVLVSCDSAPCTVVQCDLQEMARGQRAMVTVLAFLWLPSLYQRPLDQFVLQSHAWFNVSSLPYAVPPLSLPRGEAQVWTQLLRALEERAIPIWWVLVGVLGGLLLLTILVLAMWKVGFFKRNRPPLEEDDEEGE
T1 sequence (P05106 27-788): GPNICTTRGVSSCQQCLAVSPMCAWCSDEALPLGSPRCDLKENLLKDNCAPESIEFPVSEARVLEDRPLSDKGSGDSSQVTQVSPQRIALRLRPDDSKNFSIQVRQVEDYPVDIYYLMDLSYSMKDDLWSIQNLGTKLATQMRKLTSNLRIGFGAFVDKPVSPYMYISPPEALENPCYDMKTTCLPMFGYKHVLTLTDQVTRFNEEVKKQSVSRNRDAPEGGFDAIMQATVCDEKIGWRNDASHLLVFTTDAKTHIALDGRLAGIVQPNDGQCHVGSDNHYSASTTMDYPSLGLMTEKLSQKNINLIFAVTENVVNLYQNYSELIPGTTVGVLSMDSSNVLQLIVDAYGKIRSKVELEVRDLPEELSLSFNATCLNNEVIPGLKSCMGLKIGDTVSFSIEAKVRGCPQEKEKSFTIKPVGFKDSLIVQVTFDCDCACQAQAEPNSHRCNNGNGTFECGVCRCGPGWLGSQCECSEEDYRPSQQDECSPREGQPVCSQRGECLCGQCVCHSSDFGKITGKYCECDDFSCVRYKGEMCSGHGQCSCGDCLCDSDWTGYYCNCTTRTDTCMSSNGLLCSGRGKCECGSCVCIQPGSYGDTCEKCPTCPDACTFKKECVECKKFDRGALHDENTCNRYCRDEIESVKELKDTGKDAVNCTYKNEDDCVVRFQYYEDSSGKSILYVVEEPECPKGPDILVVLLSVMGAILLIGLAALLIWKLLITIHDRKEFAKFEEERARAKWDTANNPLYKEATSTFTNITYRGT
Outline: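 Purified human platelet GP IIb IIIa binding to immobilised purified fibrinogen was run with compound at room temperature for 1 h. IC50 values were determined.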

[2] = biological target: T2, Human Vitronectin receptor (av b3) (Homo sapiens, UniProt P05106+P06756); test: Human Vitronectin-Vitronectin Receptor (av b3) ELISA Assay (Vn/VnR); assay type: binding; details: Example 30, G # table
T2 construct: is purified from human placenta; from tissue; host or cells: human placenta
T2 sequence (P06756 31-889 limits assumed): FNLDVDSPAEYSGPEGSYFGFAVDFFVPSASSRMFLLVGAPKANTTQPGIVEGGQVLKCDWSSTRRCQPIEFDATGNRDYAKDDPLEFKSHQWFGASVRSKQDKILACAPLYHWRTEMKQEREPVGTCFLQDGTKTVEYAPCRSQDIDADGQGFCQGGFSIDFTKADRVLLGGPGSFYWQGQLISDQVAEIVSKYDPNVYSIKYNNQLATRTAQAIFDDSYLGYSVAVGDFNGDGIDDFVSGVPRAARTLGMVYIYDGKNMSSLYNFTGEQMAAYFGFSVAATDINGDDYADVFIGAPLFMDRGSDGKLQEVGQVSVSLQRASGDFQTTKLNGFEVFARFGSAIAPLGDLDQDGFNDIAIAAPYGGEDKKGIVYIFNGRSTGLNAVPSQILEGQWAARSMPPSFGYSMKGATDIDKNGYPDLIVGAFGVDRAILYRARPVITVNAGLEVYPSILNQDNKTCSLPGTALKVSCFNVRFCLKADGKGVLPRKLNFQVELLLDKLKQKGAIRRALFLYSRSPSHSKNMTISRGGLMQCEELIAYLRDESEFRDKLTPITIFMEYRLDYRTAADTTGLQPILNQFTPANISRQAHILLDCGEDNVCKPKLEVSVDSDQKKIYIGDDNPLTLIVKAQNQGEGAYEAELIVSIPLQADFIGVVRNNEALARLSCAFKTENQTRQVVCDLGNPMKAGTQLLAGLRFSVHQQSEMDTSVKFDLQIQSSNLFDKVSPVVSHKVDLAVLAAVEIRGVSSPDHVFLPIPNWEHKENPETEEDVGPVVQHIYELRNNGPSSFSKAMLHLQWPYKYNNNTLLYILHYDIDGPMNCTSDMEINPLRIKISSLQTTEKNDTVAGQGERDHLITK
T2 sequence (P06756 891-1048 partner limits assumed): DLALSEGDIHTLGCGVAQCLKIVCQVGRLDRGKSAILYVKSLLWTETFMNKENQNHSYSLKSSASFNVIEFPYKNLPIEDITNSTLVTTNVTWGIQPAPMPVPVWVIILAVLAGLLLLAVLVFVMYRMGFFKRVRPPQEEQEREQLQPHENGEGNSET
T2 sequence (P05106 27-788): as the sequence (P05106 27-788) above
Description: Human vitronectin (Vn) is isolated from human plasma and purified by affinity chromatography by the method of Yatohgo et. al., (Cell Structure and Function 13: 281-292 [1988]).
Human vitronection receptor (VnR) is purified from human placenta by the method of Pytela et al., (Methods Enzymol., 144: 475 [1987]). Alternatively the av b3 receptor can be purified from some cell lines (e.g., human embryonic kidney 293 cells) transfected with DNA sequences for both the av and b3 subunits. The subunits are purified by employing octylglucoside extraction followed by Con-A, Heparin-Sepharose, and S-300 Chromatography.
This mouse Mab is specific for the b3 subunit of the vitronectin receptor.
Rabbit Fab 2 anti-mouse Fc fragment horse radish peroxidase conjugate (anti-MuFc HRP) is obtained from PelFreeze (cat. no. 715305-1).
Maxisorp microtiter plates are coated with 2 mg/ml human vitronectin dissolved in PBS (50 ml/well) and stored overnight at 4° C. The plates are washed two times with PBS-0.05% Tween-20 (wash buffer) and blocked by incubating with about 150 ml/well of assay buffer (1%, BSA [RIA grade or better] in 50 mM Tris-HCl, 100 mM NaCl, 1 mM MgCl2, CaCl2, MnCl2 pH 7.4) for 60 minutes. […] The blocked plates are emptied and 25 ml/well of inhibitor or standard solution is added to each well. Twenty-five ml of a 30 mg/ml solution of purified av b3 in assay buffer is pipetted into the coated plate. The final concentration of receptor in the assay well is about 15 mg/ml. The plate is incubated on a shaker for 60 minutes. Meanwhile, for each microtite plate, 6 ml buffer solution containing 1.5 mg/ml of mouse monoclonal antibody specific for b3 is prepared. To this solution is added ml of the secondary antibody, which is anti-mouse-Fc-HRP antibody conjugate. For example, for one plate, prepare 6 ml of a 1.5 mg/ml mouse Mab solution to which is added 1 ml of anti-mouse-Fc-HRP antibody stock, (this represents a 1:6000 dilution of the antibody-HRP conjugate). This mixture is allowed to incubate during the receptor-inhibitor incubation. The assay plates are washed 4 times with PBS-Tween and 50 ml/well of the antibody mixture is then pipetted into the plate for a 60 minute incubation. The plate is washed 4 times and the color reaction is developed with 50 ml/well of 0.67 mg/ml o-phenyldiamine in PBS containing 0.012% H2 O2. Alternatively, 16 mM citric acid, 50 mM Na2 PO4 at pH 5.0 can be used as a substrate buffer. The reaction is stopped with 50 ml/well 1 M H2 SO4. The plates are read at 492-405 nm and the data analyzed by four-parameter fit.

[3] = tested on: human platelet rich plasma (PRP); test: In Vitro Human Platelet Aggregation Assay (PA); assay type: cell-based
Experimental: In addition to the GPIIb IIIa ELISA assay, platelet aggregation assays may be performed in human platelet rich plasma (PRP). […] The blood is centrifuged at 160×g for 10 min at 22° C. and then allowed to stand for 5 min after which the PRP is decanted. Platelet poor plasma (PPP) is isolated from the remaining blood after centrifugation at 2000×g for 25 min. The platelet count of the PRP is adjusted to ca. 300,000 per microliter with PPP.
A 225 mL aliquot of PRP plus 25 mL of either a dilution of the test sample or a control (PBS) is incubated for 5 min in a Chrono-log Whole Blood Aggregometer at 25° C. An aggregating agent (collagen, 1 mg/ml; U46619, 100 ng/ml; or ADP, 8 mM) is added and the platelet aggregation recorded.
Platelet aggregation assays are performed in human platelet rich plasma (PRP). […] The blood is centrifuged at 160×g for 10 minutes at 22° C. and allowed to stand for 5 minutes after which the PRP is decanted. Platelet poor plasma (PPP) is isolated from the remaining blood after centrifugation at 2000×g for 25 minutes. The platelet count of the PRP is diluted to about 300,000 platelets per microliter with PPP.
A 225 ml aliquot of PRP plus 25 ml of either a dilution of the test inhibitor sample or a control (PBS) is incubated for 5 minutes in a Chrono-log Whole Blood Aggregometer at 25° C. An aggregating agent (collagen, 1 mg/ml; U46619, 100 ng/ml; or ADP, 17 mM) is added and the transmission is recorded.

[4] = biological target: T1, GP IIb IIIa; test: GP IIb IIIa -von Willebrand factor (vWF) ELISA Assay (vWF/IIbIIIa); assay type: binding; details: Example 30, G # table
Experimental: Microtiter plates are coated with 1.0 mg/ml GP IIb IIIa, prepared by the method of Fitzgerald et al., (Anal. Biochem. 151: 169-177 [1985]) and allowed to incubate overnight in coat buffer. The plates are then washed three times in wash buffer (0.05% Tween 20 in PBS) and 150 ml of assay buffer is added and allowed to incubate for 1-2 hours at room temperature on plate shaker. […] Fifty ml of 4.0 mg/ml vWF (prepared as described by Ledford et al., Thrombosis and Haemostasis, 64(4): 569-575 ]1990]) in assay buffer is then added and allowed to incubate for one hour at room temperature on plate-shaker. The plates are washed three times and the antibody mixture is added (1:5000 of mouse anti-vWF and 1:5000 of rabbit-anti-mouse-Fc-HRP, both commercially available) in assay buffer and incubated for 1 hour at room temperature on plate-shaker. […] The color change of OPD/H2 O2 reagent is read at 492 nm with a 405 nm reference wavelength on the filter photometer.

[5] = Homo sapiens, Platelet, citrate, read-out: PA IC50 (μM) (citrate)
[6] = Homo sapiens, Platelet, heparin, read-out: PA IC50 (μM) (heparin)
[7] = Examples 29 and 30, Cmpd # tables

Structure (SMILES) | pIC50 [1] | IC50 ([1]; Example 30, G # table) | IC50 [2] | IC50 [3, 5] | IC50 [4] | IC50 [3, 6] | IC50 ([3]; heparin, read-out: PA IC50 (μM) (heparin)) | IC50 [1, 7]
N=C(N)NCCCc1ccc2c(c1)C(=O)N(CCC(=O)O)CC(=O)N2 [Cmpd 2] | 6.15 | 0.714 µM | > 10 µM | > 5 µM |  |  |  | 
CN1C(=O)CN(CCC(=O)O)C(=O)c2cc(CCCCNC(=N)N)ccc21 [Cmpd 20] | 6.60 | 0.245 µM | > 10 µM |  | 0.096 µM |  |  | 
CN1C(=O)CN(CCC(=O)O)C(=O)c2cc(C#CCCNC(=N)N)ccc21 [Cmpd 22] | 6.85 | 0.14 µM | > 10 µM | 8.96 µM |  |  |  | 
CN1C(=O)CN(CCC(=O)O)C(=O)c2cc(CCCCCN)ccc21 [Cmpd 27, 1-methyl-4-(2-carboxyethyl)-7-(5-amino-1-pentyl)-3,4-dihydro-1H-1,4-benzodiazepine-2,5-dione trifluroacetate] | 5.72 | 1.9 µM | > 10 µM |  | 0.78 µM |  |  | 
CN1C(=O)CN(CCC(=O)O)C(=O)c2cc(C#CCCCNC(=N)N)ccc21 [Cmpd 34, 1-methyl-4-(2-carboxyethyl)-7-(5-guanidino-1-pentynyl)-3,4-dihydro-1H-1,4-benzodiazepine-2,5-dione trifluroacetate] | 8.44 | 0.0036 µM | > 10 µM | 3.1 µM |  | 7.5 µM |  | 
NCCCC#Cc1ccc2c(c1)C(=O)N(CCC(=O)O)CC(=O)N2Cc1cccc([N+](=O)[O-])c1 [Cmpd 35, 1-(3-nitrobenzyl)-4-(2-carboxyethyl)-7-(5-amino-1-pentynyl)-3,4-dihydro-1H-1,4-benzodiazepine-2,5-dione trifluroacetate] | 7.89 | 0.013 µM | > 10 µM | 2.4 µM |  | 8 µM | 9.53 µM | 
CN1C(=O)CN(CCC(=O)O)C(=O)c2cc(C#CCCCCNC(=N)N)ccc21 [Cmpd 42, 1-(methyl)-4-(2-carboxyethyl)-7-(6-guanidino-1-hexynyl)-3,4-dihydro-1H-1,4-benzodiazepine-2,5-dione trifluroacetate] | 7.22 | 0.009 µM | > 10 µM | 2.66 µM |  |  |  | 
CN1C(=O)CN(CCC(=O)O)C(=O)c2cc(C#Cc3ccc(CN)cc3)ccc21 [Cmpd 43, 1-(methyl)-4-(2-carboxyethyl)-7-[4-(aminomethyl)phenyl]ethynyl-3,4-dihydro-1H-1,4-benzodiazepine-2,5-dione trifluroacetate] | 7.92 | 0.012 µM | > 10 µM | 1.7 µM |  | 3.34 µM |  | 
CN1C(=O)CN(CCC(=O)O)C(=O)c2cc(C#Cc3ccc(CNC(=N)N)cc3)ccc21 [Cmpd 44, 1-(methyl)-4-(2-carboxyethyl)-7-[4-(guanidinomethyl)phenyl]ethynyl-3,4-dihydro-1H-1,4-benzodiazepine-2,5-dione trifluroacetate] | 7.92 | 0.012 µM | > 10 µM | 8.8 µM |  | 14.3 µM |  | 
NCCCCC#Cc1ccc2c(c1)C(=O)N(CCC(=O)O)CC(=O)N2Cc1cccc([N+](=O)[O-])c1 [Cmpd 55, 1-(3-nitrobenzyl)-4-(2-carboxyethyl)-7-(6-amino-1-hexynyl)-3,4-dihydro-1H-1,4-benzodiazepine-2,5-dione trifuroacetate] | 8.10 | 0.008 µM | > 10 µM |  |  | 2.2 µM |  | 
N=C(N)NCCCCC#Cc1ccc2c(c1)C(=O)N(CCC(=O)O)CC(=O)N2Cc1cccc([N+](=O)[O-])c1 [Cmpd 56, 1-(3-nitrobenzyl)-4-(2-carboxyethyl)-7-(6-guanidino-1-hexynyl)-3,4-dihydro-1H-1,4-benzodiazepine-2,5-dione trifluroacetate] | 8.22 | 0.006 µM | > 10 µM |  |  | 15 µM |  | 
NCCCCC#Cc1ccc2c(c1)C(=O)N(CCC(=O)O)CC(=O)N2Cc1ccc(Cl)cc1 [Cmpd 60] | 7.85 | 0.014 µM | > 10 µM | 2.12 µM |  |  |  | 
N=C(N)NCCCCCc1ccc2c(c1)C(=O)N(CCC(=O)O)CC(=O)N2Cc1ccc(Cl)cc1 [Cmpd 63] | 7.96 | 0.011 µM | > 10 µM | 2.55 µM |  |  |  | 
NCCCCCCc1ccc2c(c1)C(=O)N(CCC(=O)O)CC(=O)N2Cc1ccc(Cl)cc1 [Cmpd 64, 1-(4-chlorophenyl)methyl-4-(2-carboxyethyl)-7-(6-aminohexyl)-3,4-dihydro-1H-1,4-benzodiazapine-2,5-dione] | 7.85 | 0.014 µM | > 10 µM | 1.2 µM |  | 4.76 µM |  | 
NCCCCCCCc1ccc2c(c1)C(=O)N(CCC(=O)O)CC(=O)N2Cc1ccc(Cl)cc1 [Cmpd 66] | 7.59 | 0.026 µM | > 10 µM | 3.88 µM |  |  |  | 
NCCCCCc1ccc2c(c1)C(=O)N(CCC(=O)O)CC(=O)N2C(c1ccccc1)c1ccccc1 [Cmpd 68, 1-(diphenylmethyl)-4-(2-carboxyethyl)-7-(5-aminopentyl)-3,4-dihydro-1H-1,4-benzodiazepine-2,5-dione trifluoroacetate] | 7.70 | 0.028 µM | > 10 µM | 1.66 µM |  | 3.4 µM |  | 
N=C(N)NCCCCCc1ccc2c(c1)C(=O)N(CCC(=O)O)CC(=O)N2C(c1ccccc1)c1ccccc1 [Cmpd 69, 1-(diphenylmethyl)-4-(2-carboxyethyl)-7-(5-guanidinopentyl)-3,4-dihydro-1H-1,4-benxodiazepine-2,5-dione trifluoroacetate] | 7.09 | 0.082 µM | > 10 µM | 2.09 µM |  | 3.9 µM |  | 
N=C(N)NCCCC#Cc1ccc2c(c1)C(=O)N(CCC(=O)O)CC(=O)N2C(c1ccccc1)c1ccccc1 [Cmpd 71] | 8.10 | 0.008 µM | > 10 µM | 0.34 µM |  | 0.95 µM |  | 
NCCCCCCc1ccc2c(c1)C(=O)N(CCC(=O)O)CC(=O)N2C(c1ccccc1)c1ccccc1 [Cmpd 72, 1-(diphenylmethyl)-4-(2-carboxyethyl)-7-(6-aminohexyl)-3,4-dihydro-1H-1,4-benzodiazepine-2,5-dione trifluoroacetate] | 7.66 | 0.022 µM | > 10 µM | 0.46 µM |  | 1.1 µM |  | 
N=C(N)NCCCC#Cc1ccc2c(c1)C(=O)N(CCC(=O)O)CC(=O)N2Cc1cccc(NC(=O)CNC(=N)N)c1 [Cmpd 107] |  | 0.018 µM | > 10 µM | 0.61 µM |  | 0.89 µM |  | 0.018 µM
NCCCCCCc1ccc2c(c1)C(=O)N(CCC(=O)O)CC(=O)N2Cc1cccc(NC(=O)CN)c1 [Cmpd 108] |  | 0.012 µM | > 10 µM | 0.55 µM |  | 1.09 µM |  | 0.012 µM
N=C(N)NCCCCCCc1ccc2c(c1)C(=O)N(CCC(=O)O)CC(=O)N2Cc1cccc(NC(=O)CNC(=N)N)c1 [Cmpd 109] |  | 0.017 µM | > 10 µM | 1.19 µM |  |  |  | 0.017 µM
NCCCCCCc1ccc2c(c1)C(=O)N(CCC(=O)O)CC(=O)N2Cc1cccc(NC(=O)CCN)c1 [Cmpd 110, 1-[3-(3-aminopropionyl)aminophenyl]methyl-4-(2-carboxyethyl)-7-(6-aminohexyl)-3,4-dihydro-1H-1,4-benzodiazapine-2,5-dione bistrifluoroacetate] |  | 0.008 µM | > 10 µM | 0.28 µM |  | 0.83 µM |  | 0.008 µM
N=C(N)NCCCCCCc1ccc2c(c1)C(=O)N(CCC(=O)O)CC(=O)N2Cc1cccc(NC(=O)CCNC(=N)N)c1 [Cmpd 111] |  | 0.01 µM | > 10 µM | 1.14 µM |  | 1.49 µM |  | 0.01 µM

From patent US5250679A, “Nonpeptidyl platelet aggregation inhibitors having specificity for the GPIIb III receptor” (Genentech, Inc., priority 1992, dated 1993)
